Data as given in patent US6956030B2, “Use of mometasone furoate for treating upper airway diseases” (Schering Corporation, priority 1994, dated 2005).
Marks after values point to notes of the source that are not given here.

Legend:
[1] = cited from earlier work; for efficacy in treating asthma in clinical trials: clinical trials / Phase II; for systemic side effects: in vivo
plasma cortisol = assay: Phase I rising single-dose safety and tolerance study, metered dose inhaler, 24-hour plasma cortisol; assay type: in vivo, healthy male volunteers
Procedure: Several Phase I studies were conducted using mometasone furoate formulated for delivery as a suspension in a pressurized metered dose inhaler (MDI). In a randomized, third-party blinded, placebo-controlled rising single-dose safety and tolerance study, aerosolized mometasone furoate was administered by a metered dose inhaler to eight healthy male volunteers. Doses were administered at 11 p.m. and plasma cortisol concentrations were measured during the following 24-hour period.

[2] = of the inhalation dose; cited from earlier work
[3] = Drug metabolism/clinical pharmacology study: absorption and excretion of total radioactivity after ^3H-MF by various routes; assay type: in vivo, normal healthy male volunteers; details: for AUC (1) of total radioactivity, dose normalized / Cmax of total radioactivity, dose normalized: based on dose normalized data; for percent of dose as tritiated water in the body: estimated from urinary distillation experiments
Procedure: In addition, a single-dose absorption, excretion and metabolism study using 200 mcg of ^3H-mometasone furoate as the nasal spray formulation was conducted in 6 normal male volunteers. When systemic absorption (based on urinary excretion) was compared to an intravenously administered dose of ^3H-mometasone furoate, it was 8%.
A drug metabolism and clinical pharmacology study was conducted by administering (by various routes) tritium-labeled mometasone furoate (“^3H-MF”) to 6 groups of 6 normal male volunteers in each group. Blood and urine samples were collected for measurement of total drug (including metabolites).
The objectives of these studies in male volunteers were to determine the absorption, metabolism and excretion of ^3H-labeled mometasone furoate (“^3H-MF”) following administration by oral swallow as a solution and as an aqueous suspension of the monohydrate, by oral inhalation as a suspension from a standard metered dose inhaler (MDI) and from a metered dose inhaler containing a spacer device (Gentlehaler), by nasal inhalation as an aqueous suspension of the mometasone furoate monohydrate from a nasal spray unit and by intravenous injection as a solution.
Thirty-six (n=6 per treatment group) normal healthy male volunteers between the ages of 19 and 40 yr. (average 29 yr.) having weights in accordance with current actuarial tables (+10%) were enrolled in these single dose studies. All subjects were determined to be in good health by their medical history, physical examinations, clinical and laboratory tests.
(§1) Plasma, urine, expired air filters, Respirgard and fecal samples were collected and assayed for radioactivity content. The limit of quantitation (LOQ) for plasma radioactivity ranged from 0.103 to 0.138 ng eq/ml., except for the nasal spray treatment where the LOQ was 0.025 ng eq/ml. Selected plasma, urine and fecal samples were analyzed for metabolite profiles.
Pharmacokinetics—The mean (n=6) plasma concentrations of total radioactivity are illustrated in Summary FIG. 1 and the mean (n=6) pharmacokinetic parameters derived from total plasma radioactivity are presented in Table 2.

[4] = HPLC/radio-flow metabolite profiling of plasma, urine and fecal extracts after ^3H-MF; assay type: in vivo, normal healthy male volunteers
Source text: The substantial minimization of the systemic effect of mometasone furoate administered intranasally or by oral inhalation has been measured by High Performance Liquid Chromatography (HPLC) metabolite profiling of plasma radioactivity of mometasone furoate, its substantially complete (>98%) first-pass metabolism in the liver and by a minimal reduction in cortisol secretion levels.
as §1
Selected plasma, urine and fecal extracts were analyzed by high performance liquid chromatography (HPLC) with radio-flow monitoring to determine metabolite profiles. […] Approximately 1.5% of the 3 hr. plasma radioactivity was associated with parent drug indicating extensive first past metabolism and rapid inactivation by the liver. In contrast, following intravenous administration, approximately 39% of the 3 hr. plasma radioactivity was associated with parent drug. Approximately 12% and 33% of the 3 hr. plasma radioactivity was associated with parent drug following administration of the MDI and Gentlehaler, respectively. In general, the plasma concentrations of radioactivity following the nasal and oral suspension routes of administration were too low for metabolite profiling.
Hydrolysis of plasma and urine was performed with an enzyme preparation containing both β-glucuronidase and aryl sulfatase. These experiments yielded modest changes in the HPLC metabolite profiles that were consistent with the hydrolytic release of conjugated metabolites.

CCCC(=O)O[C@]1(C(=O)CSC(=O)CC)CC[C@H]2[C@@H]3CCC4=CC(=O)CC[C@]4(C)[C@H]3[C@@H](O)C[C@@]21C [butixocort propionate]
efficacy in treating asthma in clinical trials [1]: some efficacy | systemic side effects [1]: low systemic side-effects

CCS[C@]1(SC)CC[C@H]2[C@@H]3CCC4=CC(=O)C=C[C@]4(C)[C@@]3(F)[C@@H](O)C[C@@]21C [tipredane]
efficacy in treating asthma in clinical trials [1]: have not demonstrated a level of efficacy in treating asthma which would be considered therapeutically useful | systemic side effects [1]: low systemic side effects

CCC(=O)OCC(=O)[C@@]1(OC(=O)CC)[C@@H](C)C[C@H]2[C@@H]3CCC4=CC(=O)C=C[C@]4(C)[C@@]3(Cl)[C@@H](O)C[C@@]21C [beclomethasone dipropionate]
reduction of 24-hour area under the curve plasma cortisol profile (AUC 0-24) compared to placebo (plasma cortisol; single dose 1000 mcg by MDI at 11 p.m.): 30% | reduction of 24-hour area under the curve plasma cortisol profile (AUC 0-24) compared to placebo (plasma cortisol; single dose 2000 mcg by MDI at 11 p.m.): 38% | reduction of 24-hour area under the curve plasma cortisol profile (AUC 0-24) compared to placebo (plasma cortisol; single dose 4000 mcg by MDI at 11 p.m.): 65%

CCCC1O[C@@H]2C[C@H]3[C@@H]4CCC5=CC(=O)C=C[C@]5(C)[C@H]4[C@@H](O)C[C@]3(C)[C@]2(C(=O)CO)O1 (stereo partly shown) [budesonide]
systemic bioavailability after oral ingestion [2]: greater than 10%

C[C@@H]1C[C@H]2[C@@H]3CCC4=CC(=O)C=C[C@]4(C)[C@@]3(Cl)[C@@H](O)C[C@]2(C)[C@@]1(OC(=O)c1ccco1)C(=O)CCl [^3H-MF]
% Absorbed (AUC): radioactivity absorbed, dose normalized versus intravenous data ([3]; Gentlehaler): 69* % | % Absorbed (Urine): radioactivity absorbed, urinary excretion compared to the intravenous dose ([3]; Gentlehaler): 67% | Feces (% dose): administered radioactivity excreted in feces through 168 hr ([3]; Gentlehaler): 89% | U + F (% dose): total dose recovered in urine and feces through 168 hr ([3]; Gentlehaler): 105% | Urine (% dose): administered radioactivity excreted in the urine through 168 hr ([3]; Gentlehaler): ~16% | absorption of drug-derived radioactivity (dose normalized AUC and urinary excretion data) ([3]; Gentlehaler): 67-69% | AUC (1) of total radioactivity to infinity ([3]; Gentlehaler 0.40 mg): 110 ng eq hr/ml | AUC (1) of total radioactivity, dose normalized ([3]; Gentlehaler): 275 ng eq hr/ml | Cmax of total radioactivity, dose normalized ([3]; Gentlehaler): 1.71 ng eq/ml | % Absorbed (AUC): radioactivity absorbed, dose normalized versus intravenous data ([3]; MDI): 23* % | % Absorbed (Urine): radioactivity absorbed, urinary excretion compared to the intravenous dose ([3]; MDI): 30% | Feces (% dose): administered radioactivity excreted in feces through 168 hr ([3]; MDI): 86% | U + F (% dose): total dose recovered in urine and feces through 168 hr ([3]; MDI): 94% | Urine (% dose): administered radioactivity excreted in the urine through 168 hr ([3]; MDI): ~7% | absorption of drug-derived radioactivity (dose normalized AUC and urinary excretion data) ([3]; MDI): 23-30% | AUC (1) of total radioactivity to infinity ([3]; MDI 0.86 mg): 81 ng eq hr/ml | AUC (1) of total radioactivity, dose normalized ([3]; MDI): 94 ng eq hr/ml | Cmax of total radioactivity, dose normalized ([3]; MDI): 0.93 ng eq/ml | tritium label exchanged with body water ([3]; human, in vivo): less than 4% | Feces (% dose): administered radioactivity excreted in feces through 168 hr ([3]; intravenous): 54% | U + F (% dose): total dose recovered in urine and feces through 168 hr ([3]; intravenous): 78% | AUC (1) of total radioactivity to infinity ([3]; intravenous solution 1.03 mg): 401 ng eq hr/ml | Cmax (C5min) of total radioactivity ([3]; intravenous solution 1.03 mg, mean n=6): 23.7 ng eq/ml | percent of dose as tritiated water in the body ([3]; intravenous): approximately 3.7% | Feces (% dose): administered radioactivity excreted in feces through 168 hr ([3]; nasal spray): 78% | U + F (% dose): total dose recovered in urine and feces through 168 hr ([3]; nasal spray): 80% | AUC (1) of total radioactivity to infinity ([3]; nasal spray 0.19 mg): BQL | Cmax of total radioactivity ([3]; nasal spray 0.19 mg, LOQ 0.025 ng eq/ml): BQL** | Cmax of total radioactivity ([3]; nasal spray 0.19 mg, LOQ 0.025 ng eq/ml, listed as 3H-mometasone furoate): below the limit of quantification | % Absorbed (Urine): radioactivity absorbed, urinary excretion compared to the intravenous dose ([3]; nasal spray, listed as 3H-mometasone furoate): 8% | % Absorbed (AUC): radioactivity absorbed, dose normalized versus intravenous data ([3]; oral solution): 122% | % Absorbed (Urine): radioactivity absorbed, urinary excretion compared to the intravenous dose ([3]; oral solution): 104% | Feces (% dose): administered radioactivity excreted in feces through 168 hr ([3]; oral solution): 62% | U + F (% dose): total dose recovered in urine and feces through 168 hr ([3]; oral solution): 87% | AUC (1) of total radioactivity to infinity ([3]; oral solution 1.03 mg): 488 ng eq hr/ml | Cmax of total radioactivity ([3]; oral solution 1.03 mg, mean n=6): 4.8 ng eq/ml | percent of dose as tritiated water in the body ([3]; oral solution): ~2.9% | Feces (% dose): administered radioactivity excreted in feces through 168 hr ([3]; oral suspension): 73% | U + F (% dose): total dose recovered in urine and feces through 168 hr ([3]; oral suspension): 75% | AUC (1) of total radioactivity to infinity ([3]; oral suspension 0.99 mg): BQL | Cmax of total radioactivity ([3]; oral suspension 0.99 mg, LOQ 0.103 to 0.138 ng eq/ml): BQL | route of excretion of radioactivity ([3]; regardless of dosage form and route of administration): predominantly excreted in the feces | 3 hr. plasma radioactivity associated with parent drug ([4]; Gentlehaler): ~33% | urine metabolite profile ([4]; Gentlehaler): all of the radioactivity was associated with metabolites more polar than parent drug | 3 hr. plasma radioactivity associated with parent drug ([4]; MDI): Approximately 12% | 3 hr. plasma radioactivity associated with parent drug ([4]; intravenous): approximately 39% | urinary and fecal extract metabolite profile ([4]; intravenous and oral solution): all of the radioactivity was associated with metabolites more polar than parent drug | fecal extract metabolite profile ([4]; nasal spray, oral suspension, MDI and Gentlehaler): presence primarily of mometasone furoate | 3 hr. plasma radioactivity associated with parent drug ([4]; oral solution): Approximately 1.5% | plasma metabolite profile ([4]; oral solution): most of the plasma radioactivity was associated with metabolites more polar than the available standards
